“Also recorded” adds a separate entry of the source.
Columns and labels:
[1] = test system: clitoral intracavernosal blood flow; assay: Effect of apomorphine on clitoral intracavernosal blood flow (laser Doppler flow) before and after pelvic nerve stimulation; assay type: in vivo, New Zealand White female rabbits; conditions: intravenous, female rabbits
Experimental: (§1) New Zealand White female rabbits (n=6, about 3.5-4 kg) were anesthetized with intravenous administration of pentobarbital. A 20 gauge angiocatheter was placed into the right carotid artery for measurement of systemic arterial pressure. A midline abdominal incision was made and the pelvic nerve branch to the vagina and clitoris was dissected. Nerve stimulation was performed with a Harvard subminiature electrode placed around the pelvic nerve branch to the vagina and clitoris and connected to a Grass SD-9 stimulator. Clitoral intracavernosal and vaginal wall blood flow were measured with a laser Doppler flow probe placed directly into the clitoral cavernosal tissue or into the vaginal wall and connected to a laser Doppler flowmeter.
(§2) Basal arterial blood pressure and clitoral and vaginal blood flow were each recorded before and then after stimulation of the pelvic nerve branch to the clitoris and vagina.

vaginal wall blood flow = assay: Effect of apomorphine on vaginal wall blood flow (laser Doppler flow) before and after pelvic nerve stimulation; assay type: in vivo, New Zealand White female rabbits; conditions: female rabbits
Experimental: as §1, §2

[2] = test system: systemic arterial pressure; assay: Effect of apomorphine on systemic arterial pressure; assay type: in vivo, New Zealand White female rabbits; conditions: intravenous, female rabbits, FIG. 3
Experimental: as §1, §2

[3] = test system: vaginal and clitoral blood flow; assay: Optimum dose for vasculogenic effect on nerve stimulated vaginal and clitoral blood flow; assay type: in vivo, New Zealand White female rabbits; conditions: female rabbits
Experimental: as §1, §2

[4] = test system: sexual readiness (clitoral erectogenesis and vaginal engorgement on sexual stimulation); assay: Extrapolation of rabbit optimum dose to human females (sexual readiness dose)
penile erection = conditions: cited from earlier work
emesis = conditions: subcutaneous, about a 5-milligram dose; cited from earlier work
[5] = apomorphine hydrochloride studies reported in the literature; cited from earlier work

For `CN1CCc2cccc3c2[C@H]1Cc1ccc(O)c(O)c1-3` [apomorphine, Apomorphine], the “nerve stimulation-induced peak clitoral intracavernosal blood flow, concentration dependence” value ([1]; 0.05 mg/kg to 0.2 mg/kg, FIG. 1) was “concentration dependent increase”, the “nerve stimulation-induced peak clitoral intracavernosal blood flow, significance vs before apomorphine administration” value ([1]; 0.1 mg/kg, 0.2 mg/kg and 0.3 mg/kg, FIG. 1) was “statistically significant increase; also recorded: significant increase in nerve stimulation-induced peak clitoral intracavernosal blood flow” and the “effect on baseline clitoral intracavernosal blood flow” value ([1]; before nerve stimulation) was “did not affect baseline clitoral intracavernosal blood flow”. The “effect on nerve stimulation-induced increase in vaginal wall blood flow” value (vaginal wall blood flow; 0.4 mg/kg) was “adverse effect”, the “nerve stimulation-induced peak vaginal wall blood flow, concentration dependence” value (vaginal wall blood flow; intravenous, 0.05 and 0.2 mg/kg, FIG. 2) was “concentration dependent increase” and the “nerve stimulation-induced peak vaginal wall blood flow, significance vs before apomorphine administration” value (vaginal wall blood flow; intravenous, 0.1 and 0.2 mg/kg, FIG. 2) was “statistically significant increase; also recorded: significant increase in vaginal wall blood flow”. For the same compound, the “effect on basal vaginal wall blood flow” value (vaginal wall blood flow; intravenous, before nerve stimulation) was “did not affect basal vaginal wall blood flow”, the diastolic arterial pressure ([2]; increasing doses 0.05-0.4 mg/kg) was “concentration dependent moderate decrease” and the systolic arterial pressure [2] was “minimal effect”. The “optimum intravenous dosage for vasculogenic effect on nerve stimulated vaginal and clitoral blood flow” value ([3]; body weight) was “about 100 μg/kg”, the optimal dose ([3]; intravenous) was “about 0.1 mg/kg” and the “optimum dosage for human females” value ([4]; correlated from rabbit intravenous dosage (about 1/10)) was about 10 µg/kg. The “effective dose in a human female” value ([4]; correlated from rabbit intravenous dose (about 1/10)) was “about 0.01 mg/kg”, the “significant sexual readiness dose” value ([4]; sublingual tablet, women, about 70 kilograms) was “about 76 μg/kg” and the “significant sexual readiness dosage” value ([4]; sublingual, 70 kg weight woman) was “about 76 micrograms/kg”. For the same compound, the “erectogenic effect in males” value (penile erection; males, research and clinical studies) was “erectogenic effect manifested by penile erection”, the “induction of erection on oral administration” value (penile erection; oral, psychogenic patient, U.S. Pat. No. 5,624,677 and Heaton et al.) was “can be used to induce an erection” and the “plasma concentration maintained for stimulation sufficient to cause an erection” value (penile erection; sublingual, patient) was “no more than 5.5 ng/ml”. For the same compound, the emetic effect (emesis) was “emetic” and the “pharmacokinetics, females versus males” value [5] was “the same for both females and males”.
